Results published in PubChem BioAssay (NCI).
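Compound exposure: 48 hours, 5 concentrations, 96-well plates. GI50 is the concentration that inhibits growth by half. At the TGI there is no net growth.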

Legend:
Assay in all cases: inhibition of tumour cell growth, NCI panel, 48 h
[1] = system: A498 renal
[2] = system: COLO 205 colon
[3] = system: HCT-116 colon
[4] = system: HCT-15 colon
[5] = system: HS 578T breast
[6] = system: LOX IMVI melanoma
[7] = system: NCI-H460 lung
[8] = system: SK-MEL-2 melanoma
[9] = system: SK-OV-3 ovarian
[10] = system: UACC-62 melanoma

SMILES	GI50 [1]	TGI [1]	GI50 [2]	TGI [2]	GI50 [3]	TGI [3]	GI50 [4]	TGI [4]	GI50 [5]	TGI [5]	GI50 [6]	TGI [6]	GI50 [7]	TGI [7]	GI50 [8]	TGI [8]	GI50 [9]	TGI [9]	GI50 [10]	TGI [10]
Cc1cc(C)c2c(n1)sc1c(Nc3ccc(Cl)cc3)ncnc12	< 0.0133 µM	0.491 µM	0.0314 µM	> 100 µM	< 0.01 µM	> 100 µM	< 0.01 µM	> 100 µM	> 100 µM	> 100 µM	< 0.01 µM	> 100 µM	< 0.01 µM	> 100 µM	> 100 µM	> 100 µM	0.0418 µM	> 100 µM	< 0.01 µM	–
CC(=O)Nc1ccc(S(=O)(=O)N2C(=O)CCC2C(=O)Nc2ccc(Br)cc2)cc1 (configuration not stated)	0.435 µM	4.71 µM	3.01 µM	11.7 µM	1.74 µM	> 100 µM	1.72 µM	13 µM	3.05 µM	22.5 µM	0.972 µM	7.39 µM	2.63 µM	24.5 µM	4.05 µM	17.8 µM	3.58 µM	16.1 µM	0.648 µM	4.54 µM
CSc1nc(=O)n(CCC#N)nc1SC	–	> 100 µM	–	52.8 µM	–	30.1 µM	–	> 100 µM	–	> 100 µM	–	43.5 µM	–	> 100 µM	–	39.8 µM	–	> 100 µM	–	> 100 µM
CCCCC#CC1=C(Br)C(=O)OC1	18.1 µM	33.5 µM	2.66 µM	> 22.2 µM	0.139 µM	0.327 µM	1.02 µM	–	3.89 µM	23.1 µM	0.318 µM	–	14 µM	38.8 µM	3.12 µM	15.2 µM	36.1 µM	> 77.2 µM	2.24 µM	7.1 µM
CCN1CCN(C(=O)[C@@]2(C)CC[C@]3(C)CC[C@]4(C)C(=CC(=O)[C@@H]5[C@@]6(C)CC[C@H](OC7C[C@@H](O)[C@@H](O)C(C)O7)C(C)(C)[C@@H]6CC[C@]54C)[C@@H]3C2)CC1 (some centres not stated)	8.96 µM	17 µM	9.13 µM	20.6 µM	1.65 µM	5.74 µM	2.21 µM	8.67 µM	7.52 µM	17.8 µM	1.01 µM	2 µM	0.948 µM	1.86 µM	8.95 µM	17.9 µM	9.96 µM	19.5 µM	0.892 µM	1.75 µM
O=C(O)c1nnsc1-c1ccc(-c2snnc2C(=O)O)cc1	–	> 100 µM	–	> 100 µM	–	> 100 µM	–	> 100 µM	–	> 100 µM	–	> 100 µM	–	> 100 µM	–	> 100 µM	–	> 100 µM	–	> 100 µM
COc1ccccc1/C=N\N/C(N)=N\N=C\c1ccccc1OC	0.372 µM	19.4 µM	0.232 µM	0.631 µM	0.358 µM	5.55 µM	0.465 µM	> 37.5 µM	0.447 µM	38.7 µM	2.4 µM	> 39.5 µM	0.348 µM	4.37 µM	0.527 µM	10.3 µM	0.484 µM	7.62 µM	0.497 µM	> 40.7 µM
CCOC(=O)C(C#N)C1=CC(=O)C(=O)c2ccc(OC)cc21 (configuration not stated)	–	58.9 µM	–	32.3 µM	–	44.8 µM	–	59.8 µM	–	53.4 µM	–	40.7 µM	–	58.6 µM	–	28.1 µM	–	56.7 µM	–	28.5 µM
Cc1ccc(SC2c3ccc(C)cc3Oc3nc(N)c(C#N)c(N)c32)cc1 (configuration not stated)	2.72 µM	7.33 µM	1.71 µM	3.32 µM	1.88 µM	3.58 µM	1.72 µM	3.23 µM	2.4 µM	7.64 µM	1.59 µM	3.14 µM	1.94 µM	4.07 µM	1.84 µM	3.71 µM	10.1 µM	21.7 µM	1.61 µM	3.13 µM
